Test results from patent publication US20230022157A1 (Achillion Pharmaceuticals, Inc., priority 2018, published 2023).
Like-named read-outs stand apart in the source and are kept apart here.

Target: T1, Human Factor D (Homo sapiens, UniProt P00746)
T1 construct: purified from human serum; purchased Complement Technology, Inc; host or cells: human serum (natural protein, not recombinant)
Test: Human Factor D Assay
Assay type: biochemical
Details: Human Factor D 80 nM, substrate Z-L-Lys-SBzl, read-out: IC50 (Stars)
Experimental: Human Factor D (purified from human serum, Complement Technology, Inc.) at 80 nM final concentration is incubated with test compound at various concentrations for 5 min at room temperature in 50 mM Tris, 1M NaCl, pH 7.5. A synthetic substrate Z-L-Lys-SBzl and DTNB (Ellman's reagent) are added to final concentrations of 100 μM each. […] IC50 values are calculated by nonlinear regression of complement Factor D reaction rates as a function of test compound concentration.

T1 sequence (P00746 26-253): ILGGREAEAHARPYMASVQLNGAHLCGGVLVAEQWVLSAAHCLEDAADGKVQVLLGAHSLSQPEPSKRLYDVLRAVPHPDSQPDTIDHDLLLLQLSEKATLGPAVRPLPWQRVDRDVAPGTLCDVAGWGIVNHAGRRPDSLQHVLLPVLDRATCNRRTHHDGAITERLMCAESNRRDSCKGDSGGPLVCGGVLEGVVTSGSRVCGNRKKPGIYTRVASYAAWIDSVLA

IC50 (Table 2) [nM] | IC50 (assay of Example 3) [nM] | Structure (SMILES)
< 1000 | – | CC(=O)c1nn(CC(=O)N2[C@H](C(=O)Nc3cc(C)cc(Br)n3)C[C@@]3(C)C[C@@H]23)c2c(C)cc(-c3cnc(CO)nc3)cc12 [Compound 93, (1R,3S,5R)-2-(2-(3-acetyl-5-(2-(hydroxymethyl)pyrimidin-5-yl)-7-methyl-1H-indazol-1-yl)acetyl)-N-(6-bromo-4-methylpyridin-2-yl)-5-methyl-2-azabicyclo[3.1.0]hexane-3-carboxamide]
< 1000 | – | CC(=O)c1nn(CC(=O)N2[C@H](C(=O)Nc3nc(Br)ccc3Cl)C[C@@]3(C)C[C@@H]23)c2c(C)cc(-c3cnc(CO)nc3)cc12 [Compound 80, (1R,3S,5R)-2-(2-(3-acetyl-5-(2-(hydroxymethyl)pyrimidin-5-yl)-7-methyl-1H-indazol-1-yl)acetyl)-N-(6-bromo-3-chloropyridin-2-yl)-5-methyl-2-azabicyclo[3.1.0]hexane-3-carboxamide]
< 1000 | – | CC(=O)c1nn(CC(=O)N2[C@H](C(=O)Nc3nc(Br)ccc3C3CC3)C[C@@]3(C)C[C@@H]23)c2c(C)cc(-c3cnc(CO)nc3)cc12 [Compound 66, (1R,3S,5R)-2-(2-(3-acetyl-5-(2-(hydroxymethyl)pyrimidin-5-yl)-7-methyl-11H-indazol-1-yl)acetyl)-N-(6-bromo-3-cyclopropylpyridin-2-yl)-5-methyl-2-azabicyclo[3.1.0]hexane-3-carboxamide]
< 1000 | – | CC(=O)c1nn(CC(=O)N2[C@H](C(=O)Nc3nc(C(F)(F)F)ccc3C)C[C@@]3(C)C[C@@H]23)c2c(C)cc(-c3cnc(C)nc3)cc12 [Compound 236, (1R,3S,5R)-2-(2-(3-acetyl-7-methyl-5-(2-methylpyrimidin-5-yl)-1H-indazol-1-yl)acetyl)-5-methyl-N-(3-methyl-6-(trifluoromethyl)pyridin-2-yl)-2-azabicyclo[3.1.0]hexane-3-carboxamide]
< 1000 | – | CC(=O)c1nn(CC(=O)N2[C@H](C(=O)NC(C)CC3CCC3)C[C@@]3(C)C[C@@H]23)c2c(C)cc(-c3cnc(C)nc3)cc12 (stereo partly shown) [Compound 134]
< 1000 | – | CC(=O)c1cn(CC(=O)N2[C@H](C(=O)Nc3ccc(F)c(Br)n3)C[C@@]3(C)C[C@@H]23)c2c(C)cc(-c3cnc(C)nc3)cc12 [Compound 194, (1R,3S,5R)-2-(2-(3-acetyl-7-methyl-5-(2-methylpyrimidin-5-yl)-1H-indol-1-yl)acetyl)-N-(6-bromo-5-fluoropyridin-2-yl)-5-methyl-2-azabicyclo[3.1.0]hexane-3-carboxamide]
– | < 1000 | CC(=O)c1nn(CC(=O)N2C[C@H](F)C[C@H]2C(=S)Nc2cccc(Br)n2)c2ccc(-c3cnc(C)nc3)cc12 [Compound 36, (2S,4R)-1-(2-(3-Acetyl-5-(2-methylpyrimidin-5-yl)-1H-indazol-1-yl)acetyl)-N-(6-bromopyridin-2-yl)-4-fluoropyrrolidine-2-carbothioamide]
– | < 1000 | CC(=O)c1nn(CC(=O)N2[C@H](C(=O)Nc3nc(Br)ccc3C)C[C@@]3(C)C[C@@H]23)c2c(C)cc(-c3cnc(C(=O)O)nc3)cc12 [Compound 39, 5-(3-acetyl-1-(2-((1R,3S,5R)-3-((6-bromo-3-methylpyridin-2-yl)carbamoyl)-5-methyl-2-azabicyclo[3.1.0]hexan-2-yl)-2-oxoethyl)-7-methyl-1H-indazol-5-yl)pyrimidine-2-carboxylic acid]
< 1000 | – | CC(=O)c1nn(CC(=O)N2[C@H](C(=O)N[C@H]3CCCCC3(F)F)C[C@@]3(C)C[C@@H]23)c2c(C)cc(-c3cnc(C)nc3)cc12 [Compound 149, (1R,3S,5R)-2-{2-[3-acetyl-7-methyl-5-(2-methylpyrimidin-5-yl)indazol-1-yl]acetyl}-N-[(1S)-2,2-difluorocyclohexyl]-5-methyl-2-azabicyclo[3.1.0]hexane-3-carboxamide]
< 1000 | – | CC(=O)c1nn(CC(=O)N2C[C@H]3C[C@H]3[C@H]2C(=O)Nc2nc(Br)c(F)cc2C)c2c(C)cc(-c3cnc(C(C)O)nc3)cc12 (stereo partly drawn) [Compound 165, (1R,2S,5S)-3-(2-(3-acetyl-5-(2-(1-hydroxyethyl)pyrimidin-5-yl)-7-methyl-1H-indazol-1-yl)acetyl)-N-(6-bromo-5-fluoro-3-methylpyridin-2-yl)-3-azabicyclo[3.1.0]hexane-2-carboxamide]
< 1000 | – | CC(=O)c1cn(CC(=O)N2[C@H](C(=O)Nc3nc(Br)c(F)cc3C)C[C@@]3(C)C[C@@H]23)c2c(C)cc(-c3cnc(CF)nc3)cc12 [Compound 217, (1R,3S,5R)-2-(2-(3-acetyl-5-(2-(fluoromethyl)pyrimidin-5-yl)-7-methyl-1H-indol-1-yl)acetyl)-N-(6-bromo-5-fluoro-3-methylpyridin-2-yl)-5-methyl-2-azabicyclo[3.1.0]hexane-3-carboxamide]
< 1000 | – | CC(=O)c1cn(CC(=O)N2[C@H](C(=O)Nc3nc(C(F)(F)F)ccc3C)C[C@@]3(C)C[C@@H]23)c2c(C)cc(-c3cnc(CF)nc3)cc12 [Compound 220, (1R,3S,5R)-2-(2-(3-acetyl-5-(2-(fluoromethyl)pyrimidin-5-yl)-7-methyl-1H-indol-1-yl)acetyl)-5-methyl-N-(3-methyl-6-(trifluoromethyl)pyridin-2-yl)-2-azabicyclo[3.1.0]hexane-3-carboxamide]
< 1000 | – | C#CCC(Cc1ccccc1)NC(=O)[C@@H]1C[C@@]2(C)C[C@H]2N1C(=O)Cn1nc(C(C)=O)c2cc(-c3cnc(C)nc3)cc(C)c21 (stereo partly drawn) [Compound 175, (1R,3S,5R)-2-{2-[3-acetyl-7-methyl-5-(2-methylpyrimidin-5-yl)indazol-1-yl]acetyl}-5-methyl-N-(1-phenylpent-4-yn-2-yl)-2-azabicyclo[3.1.0]hexane-3-carboxamide]
< 1000 | – | CC(=O)c1nn(CC(=O)N2[C@H](C(=O)Nc3cc(F)cc(Br)n3)C[C@@]3(C)C[C@@H]23)c2c(C)cc(-c3cnc(C(C)O)nc3)cc12 (stereo partly drawn) [Compound 124, (1R,3S,5R)-2-(2-(3-acetyl-5-(2-(1-hydroxyethyl)pyrimidin-5-yl)-7-methyl-1H-indazol-1-yl)acetyl)-N-(6-bromo-4-fluoropyridin-2-yl)-5-methyl-2-azabicyclo[3.1.0]hexane-3-carboxamide]
– | < 1000 | CC(=O)c1nn(CC(=O)N2[C@H](C(=O)Nc3nc(C(F)(F)F)ccc3C)C[C@@]3(C)C[C@@H]23)c2ccc(-c3cncc(S(N)(=O)=O)c3)cc12 [Compound 22, (1R,3S,5R)-2-(2-(3-Acetyl-5-(5-sulfamoylpyridin-3-yl)-1H-indazol-1-yl)acetyl)-5-methyl-N-(3-methyl-6-(trifluoromethyl)pyridin-2-yl)-2-azabicyclo[3.1.0]hexane-3-carboxamide]
< 1000 | – | CC(=O)c1nn(CC(=O)N2[C@H](C(=O)NCC3CCc4ccccc4C3)C[C@@]3(C)C[C@@H]23)c2c(C)cc(-c3cnc(C)nc3)cc12 (stereo partly drawn) [Compound 117, (1R,3S,5R)-2-{2-[3-acetyl-7-methyl-5-(2-methylpyrimidin-5-yl)indazol-1-yl]acetyl}-5-methyl-N-(1,2,3,4-tetrahydronaphthalen-2-ylmethyl)-2-azabicyclo[3.1.0]hexane-3-carboxamide]
< 1000 | – | CC(=O)c1nn(CC(=O)N2[C@H](C(=O)Nc3nc(C(C)(F)F)ccc3C)C[C@@]3(C)C[C@@H]23)c2c(C)cc(-c3cnc(C)nc3)cc12 [Compound 130, (1R,3S,5R)-2-(2-(3-Acetyl-7-methyl-5-(2-methylpyrimidin-5-yl)-1H-indazol-1-yl)acetyl)-N-(6-(1,1-difluoroethyl)-3-methylpyridin-2-yl)-5-methyl-2-azabicyclo[3.1.0]hexane-3-carboxamide]
< 1000 | – | CC(=O)c1nn(CC(=O)N2[C@H](C(=O)N[C@@H]3CCCCC3(F)F)C[C@@]3(C)C[C@@H]23)c2c(C)cc(-c3cnc(C)nc3)cc12 [Compound 148, (1R,3S,5R)-2-{2-[3-acetyl-7-methyl-5-(2-methylpyrimidin-5-yl)indazol-1-yl]acetyl}-N-[(1R)-2,2-difluorocyclohexyl]-5-methyl-2-azabicyclo[3.1.0]hexane-3-carboxamide]
< 1000 | – | CC(=O)c1cn(CC(=O)N2[C@H](C(=O)Nc3cc(C)cc(Br)n3)C[C@@]3(C)C[C@@H]23)c2c(C)cc(-c3cnc(C)nc3)cc12 [Compound 193, (1R,3S,5R)-2-(2-(3-acetyl-7-methyl-5-(2-methylpyrimidin-5-yl)-1H-indol-1-yl)acetyl)-N-(6-bromo-4-methylpyridin-2-yl)-5-methyl-2-azabicyclo[3.1.0]hexane-3-carboxamide]

Structure (SMILES) | IC50 (Table 2) [nM] | IC50 (assay of Example 3) [nM]
CC(=O)c1nn(CC(=O)N2[C@H](C(=O)Nc3nc(Br)c(F)cc3C)C[C@@]3(C)C[C@@H]23)c2c(C)cc(-c3cnc(C(C)O)cn3)cc12 (stereo partly drawn) [Compound 204, (1R,3S,5R)-2-(2-(3-acetyl-5-(5-(1-hydroxyethyl)pyrazin-2-yl)-7-methyl-1H-indazol-1-yl)acetyl)-N-(6-bromo-5-fluoro-3-methylpyridin-2-yl)-5-methyl-2-azabicyclo[3.1.0]hexane-3-carboxamide] | < 1000 | –
CC(=O)c1nn(CC(=O)N2[C@H](C(=O)Nc3nc(Br)ccc3C)C[C@@]3(CO)C[C@@H]23)c2c(C)cc(-c3cnc(CO)nc3)cc12 [Compound 31] | – | < 1000
CC(=O)c1nn(CC(=O)N2[C@H](C(=O)N[C@@H](C)c3ccc4c(c3)CCCC4)C[C@@]3(C)C[C@@H]23)c2c(C)cc(-c3cnc(C)nc3)cc12 [Compound 151, (1R,3S,5R)-2-{2-[3-acetyl-7-methyl-5-(2-methylpyrimidin-5-yl)indazol-1-yl]acetyl}-5-methyl-N-[(1S)-1-(5,6,7,8-tetrahydronaphthalen-2-yl)ethyl]-2-azabicyclo[3.1.0]hexane-3-carboxamide] | 1000 to 10000 | –
